Patent US7456191B2, “N-Aryl-sulfoximine-substituted pyrimidines as CDK-and/or VEGF inhibitors, their production and use as pharmaceutical agents” (Schering AG, priority 2005, dated 2008)

How the values were obtained:
[1] = biological target: T1, CDK2/CycE (Homo sapiens, UniProt P24941); assay: CDK2/CycE kinase assay; format: biochemical; settings: histone IIIS substrate, 0.5 μm ATP, 33P filter assay
T1 construct: GST; purchased ProQinase GmbH, Freiburg; host or cells: baculovirus-infected insect cells (Sf9)
Experimental: Recombinant CDK2- and CycE-GST-fusion proteins, purified from baculovirus-infected insect cells (Sf9), were purchased by ProQinase GmbH, Freiburg. Histone IIIs, which was used as a kinase substrate, was purchased by the Sigma Company.
(§1) CDK2/CycE (50 ng/measuring point) was incubated for 15 minutes at 22° C. in the presence of various concentrations of test substances (0 μm, as well as within the range of 0.01-100 μm) in assay buffer [50 mmol of tris/HCl, pH 8.0, 10 mmol of MgCl2, 0.1 mmol of Na ortho-vanadate, 1.0 mmol of dithiothreitol, 0.5 μm of adenosine triphosphate (ATP), 10 μg/measuring point of histone IIIS, 0.2 μCi/measuring point of ^33P-gamma ATP, 0.05% NP40, 12.5% dimethyl sulfoxide]. The reaction was stopped by adding EDTA solution (250 mmol, pH 8.0, 14 μl/measuring point).
(§2) From each reaction batch, 10 μl was applied to P30 filter strips (Wallac Company), and non-incorporated ^33P-ATP was removed by subjecting the filter strips to three washing cycles for 10 minutes each in 0.5% phosphoric acid. After the filter strips were dried for one hour at 70° C., the filter strips were covered with scintillator strips (MeltiLex™ A, Wallac Company) and baked for one hour at 90° C. The amount of incorporated ^33P (substrate phosphorylation) was determined by scintillation measurement in a gamma-radiation measuring device (Wallac).

[2] = biological target: T2, VEGF receptor tyrosine kinase-2 (Homo sapiens, UniProt P35968); assay: VEGF receptor-2 kinase assay; format: biochemical; settings: poly-(Glu4Tyr) substrate, 8 μmol ATP, 33P filter assay; read-out: VEGF-R2 IC50
T2 construct: GST; made in house; host or cells: baculovirus-infected insect cells (Sf9)
Experimental: VEGF Receptor-2 Kinase Assay
Recombinant VEGF receptor tyrosine kinase-2 was purified as a GST fusion protein from baculovirus-infected insect cells (Sf9). Poly-(Glu4Tyr), which was used as a kinase substrate, was purchased by the Sigma Company. VEGF receptor tyrosine kinase (90 ng/measuring point) was incubated for 10 minutes at 22° C. in the presence of various concentrations of test substances (0 μm, as well as within the range of 0.001-30 μm) in 30 μl of assay buffer [40 mmol of Tris/HCl, […], 10 mmol of MgCl2, 1 mmol of MnCl2, 3 μmol of Na ortho-vanadate, 1.0 mmol of dithiothreitol, 8 μmol of adenosine trisphosphate (ATP), 27 μg/measuring point of poly-(Glu4Tyr), 0.2 μCi/measuring point of 33P-gamma ATP, 1% dimethyl sulfoxide]. The reaction was stopped by adding EDTA solution (250 mmol, pH 7.0, 10 μl/measuring point).
as §2, with “33P-ATP” for “^33P-ATP”, “33P” for “^33P”

[3] = biological target: T3, CDK1/CycB (Homo sapiens, UniProt P06493); assay: CDK1/CycB kinase assay; format: biochemical; settings: histone IIIS substrate, 0.5 μm ATP, 33P filter assay
T3 construct: GST; purchased ProQinase GmbH, Freiburg; host or cells: baculovirus-infected insect cells (Sf9)
Experimental: Recombinant CDK1- and CycB-GST-fusion proteins, purified from baculovirus-infected insect cells (Sf9), were purchased from ProQinase GmbH, Freiburg. Histone IIIS, used as a kinase substrate, is available commercially from the Sigma Company.
as §1, with “CDK1/CycB (200” for “CDK2/CycE (50”
as §2, with “33P-ATP” for “^33P-ATP”, “33P” for “^33P”

[4] = tested on: MaTu-ADR; assay: Proliferation assay, MaTu-ADR; format: cell-based; settings: Homo sapiens, 96 h; MaTu-ADR cells, 4 days, crystal violet
[5] = tested on: DU 145, hormone-independent human prostate cancer cells; assay: Proliferation assay, DU145; format: cell-based; settings: DU-145, 96 h, 4 days, crystal violet
From the text: (§3) Cultivated human tumor cells (MCF7, hormone-independent human breast cancer cells, related to ATCC HTB22; NCI-H460, human non-small-cell lung cancer cells, ATCC HTB-177; DU 145, hormone-independent human prostate cancer cells, ATCC HTB-81; MaTu-MDR, hormone-independent, multiple pharmaceutical agent-resistant human breast cancer cells, EPO-GmbH, Berlin) were flattened out at a density of about 5000 cells/measuring point, depending on the growth rate of the respective cells, in a 96-well multititer plate in 200 μl of the corresponding growth medium. After 24 hours, the cells of one plate (zero-point plate) were colored with crystal violet (see below), while the medium of the other plates was replaced by fresh culture medium (200 μl), to which the test substances were added in various concentrations (0 μm, as well as in the range of 0.01-30 μm; the final concentration of the solvent dimethyl sulfoxide was 0.5%). The cells were incubated for 4 days in the presence of test substances. The cell proliferation was determined by coloring the cells with crystal violet: the cells were fixed by adding 20 μl/measuring point of an 11% glutaric aldehyde solution for 15 minutes at room temperature. After three washing cycles of the fixed cells with water, the plates were dried at room temperature. The cells were colored by adding 100 μl/measuring point of a 0.1% crystal violet solution (the pH was set at 3 by adding acetic acid). After three washing cycles of the colored cells with water, the plates were dried at room temperature. The dye was dissolved by adding 100 μl/measuring point of a 10% acetic acid solution. The extinction was determined by photometry at a wavelength of 595 nm. The change of cell growth, in percent, was calculated by normalization of the measured values to the extinction values of the zero-point plate (=0%) and the extinction of the untreated (0 μm) cells (=100%).

[6] = tested on: NCI-H460, human non-small-cell lung cancer cells; assay: Proliferation assay, H460; format: cell-based; settings: NCI-H460, 96 h, 4 days, crystal violet
From the text: as §3

[7] = tested on: MCF7, hormone-independent human breast cancer cells; assay: Proliferation assay, MCF7; format: cell-based; settings: 96 h, 4 days, crystal violet
From the text: as §3

[8] = biological target: Human Carboanhydrase-2 (Homo sapiens, UniProt P00918); assay: Carboanhydrase assay; format: biochemical; settings: 4-nitrophenyl acetate hydrolysis, 400 nm; read-out: Inhibition of Human Carboanhydrase-2 IC50
Experimental: 2 μl of the test compounds, dissolved in DMSO (100× the final concentration), in a concentration range of 0.03-10 μm (final), was pipetted as 4× determinations into the holes of a 96-hole microtiter plate. Holes that contained the solvent without test compounds were used as reference values (1. Holes without carboanhydrase for correction of the non-enzymatic hydrolysis of the substrate, and 2. Holes with carboanhydrase for determining the activity of the non-inhibited enzyme).
188 μl of assay buffer (10 mmol of Tris/HCl, pH 7.4, 80 mmol of NaCl), with or without 3 units/hole on carboanhydrase I or II, was pipetted into the holes of the microtiter plate.

T3 sequence (P06493 whole entry): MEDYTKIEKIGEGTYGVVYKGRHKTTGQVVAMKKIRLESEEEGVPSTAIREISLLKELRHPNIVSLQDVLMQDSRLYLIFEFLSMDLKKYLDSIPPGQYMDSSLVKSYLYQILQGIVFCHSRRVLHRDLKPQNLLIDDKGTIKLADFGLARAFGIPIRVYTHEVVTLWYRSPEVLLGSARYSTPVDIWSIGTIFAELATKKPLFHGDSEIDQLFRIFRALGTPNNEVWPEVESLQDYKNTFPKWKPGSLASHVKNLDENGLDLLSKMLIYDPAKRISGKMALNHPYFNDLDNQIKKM
T3 sequence (P14635 whole entry partner): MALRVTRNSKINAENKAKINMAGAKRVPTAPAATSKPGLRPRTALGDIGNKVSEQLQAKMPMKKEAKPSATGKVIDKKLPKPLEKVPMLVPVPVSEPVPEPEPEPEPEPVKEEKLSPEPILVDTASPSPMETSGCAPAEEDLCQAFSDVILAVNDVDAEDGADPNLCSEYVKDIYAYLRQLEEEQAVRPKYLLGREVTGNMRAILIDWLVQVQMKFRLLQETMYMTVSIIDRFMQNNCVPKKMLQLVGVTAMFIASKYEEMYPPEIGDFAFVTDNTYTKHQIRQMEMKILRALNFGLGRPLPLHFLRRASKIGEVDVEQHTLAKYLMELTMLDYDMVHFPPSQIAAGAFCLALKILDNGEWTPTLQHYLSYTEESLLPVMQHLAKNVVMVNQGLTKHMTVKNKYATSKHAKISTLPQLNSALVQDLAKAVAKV
T2 sequence (P35968 20-1356): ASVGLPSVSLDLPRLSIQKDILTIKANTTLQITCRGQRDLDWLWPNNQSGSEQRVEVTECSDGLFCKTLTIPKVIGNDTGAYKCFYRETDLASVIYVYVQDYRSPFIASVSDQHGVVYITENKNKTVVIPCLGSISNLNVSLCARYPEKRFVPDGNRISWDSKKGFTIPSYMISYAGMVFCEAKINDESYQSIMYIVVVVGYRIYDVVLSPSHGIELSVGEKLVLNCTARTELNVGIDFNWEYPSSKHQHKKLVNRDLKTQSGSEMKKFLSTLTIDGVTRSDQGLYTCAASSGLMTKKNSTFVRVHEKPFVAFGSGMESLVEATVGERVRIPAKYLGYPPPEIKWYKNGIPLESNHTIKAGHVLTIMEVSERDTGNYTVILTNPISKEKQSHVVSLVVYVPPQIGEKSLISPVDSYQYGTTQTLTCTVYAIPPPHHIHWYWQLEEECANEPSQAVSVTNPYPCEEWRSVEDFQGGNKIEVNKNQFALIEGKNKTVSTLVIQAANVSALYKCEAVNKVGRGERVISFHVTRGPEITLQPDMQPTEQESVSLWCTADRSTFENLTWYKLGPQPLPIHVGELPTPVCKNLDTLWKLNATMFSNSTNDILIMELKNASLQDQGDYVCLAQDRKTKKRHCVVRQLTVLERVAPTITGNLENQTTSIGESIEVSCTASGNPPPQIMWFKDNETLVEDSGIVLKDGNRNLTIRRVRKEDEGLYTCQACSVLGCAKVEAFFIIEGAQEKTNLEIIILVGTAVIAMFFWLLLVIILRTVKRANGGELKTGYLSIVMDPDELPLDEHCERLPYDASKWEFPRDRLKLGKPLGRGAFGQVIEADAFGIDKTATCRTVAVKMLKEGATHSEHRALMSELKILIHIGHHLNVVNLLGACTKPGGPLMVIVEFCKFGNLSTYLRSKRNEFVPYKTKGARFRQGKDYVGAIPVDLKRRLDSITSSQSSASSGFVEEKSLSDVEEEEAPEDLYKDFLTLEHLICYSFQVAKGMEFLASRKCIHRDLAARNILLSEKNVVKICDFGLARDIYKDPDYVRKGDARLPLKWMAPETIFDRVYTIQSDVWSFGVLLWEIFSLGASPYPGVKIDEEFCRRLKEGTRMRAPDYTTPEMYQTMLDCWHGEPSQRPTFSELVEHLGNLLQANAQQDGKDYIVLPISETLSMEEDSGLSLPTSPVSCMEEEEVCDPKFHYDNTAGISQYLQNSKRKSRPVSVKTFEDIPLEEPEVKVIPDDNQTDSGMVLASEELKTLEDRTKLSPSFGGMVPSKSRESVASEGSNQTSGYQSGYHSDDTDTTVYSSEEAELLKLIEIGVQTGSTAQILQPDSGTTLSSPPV

Row | SMILES | IC50 [1] | IC50 [2] | IC50 [3] | IC50 [4] | IC50 [5] | IC50 [6] | IC50 [7] | IC50 [8]
1 | CS(C)(=O)=Nc1ccc(Nc2ncc(Br)c(NC3(CO)CCCC3)n2)cc1 [Example 11, N-{4-[(5-Bromo-4-{[1-(hydroxymethyl)cyclopentyl]amino}pyrimidin-2-yl)amino]phenyl}-S,S-dimethylsulfoximide] | 0.68 µM | 0.054 µM | – | – | – | – | – | –
2 | C#CCOc1nc(Nc2ccc(N=S(C)(C)=O)cc2)ncc1C(F)(F)F [Example 9, S,S-Dimethyl-N-(4-{[4-(prop-2-yn-1-yloxy)-5-(trifluoromethyl)pyrimidin-2-yl]amino}phenyl)sulfoximide] | 0.26 µM | 0.14 µM | 0.67 µM | – | – | – | – | –
3 | CS(C)(=O)=Nc1ccc(Nc2ncc(Br)c(Nc3ccccc3)n2)cc1 [Example 6, N-{4-[(4-Anilino-5-bromopyrimidin-2-yl)amino]phenyl}-S,S-dimethylsulfoximide] | – | 0.073 µM | – | 0.3 µM | 0.3 µM | 0.4 µM | 0.5 µM | –
4 | C[C@H](CO)Nc1nc(Nc2ccc(N=S(C)(C)=O)cc2)ncc1[N+](=O)[O-] [Example 7, N-{4-[(4-{[(R)-2-Hydroxy-1-methylethyl]amino}-5-nitropyrimidin-2-yl)amino]phenyl}-S,S-dimethylsulfoximide] | – | 0.2 µM | – | – | – | – | – | –
5 | CS(C)(=O)=Nc1ccc(Nc2ncc(Br)c(N[C@@H]3CCOC3)n2)cc1 [Example 13, N-[4-({5-Bromo-4-[(R)-(2,3,4,5-tetrahydrofuran-3-yl)amino]pyrimidin-2-yl}amino)phenyl]-S,S-dimethylsulfoximide] | – | 0.042 µM | – | – | – | – | – | –
6 | C[C@@H](O)[C@@H](C)Nc1nc(Nc2ccc(N=S(C)(C)=O)cc2)ncc1Br [Example 2, N-{4-[(5-Bromo-4-{[(1R,2R)-2-hydroxy-1-methylpropyl]amino}-pyrimidin-2-yl)amino]phenyl}-S,S-dimethylsulfoximide] | 0.011 µM | 0.027 µM | 0.032 µM | 0.9 µM | 1 µM | 0.8 µM | 0.6 µM | > 10 µM
7 | C[C@@H](Nc1nc(Nc2ccc(N=S(C)(C)=O)cc2)ncc1Br)C(C)(C)O [Example 1, N-{4-[(5-Bromo-4-{[(R)-2-hydroxy-1,2-dimethylpropyl]amino}-pyrimidin-2-yl)amino]phenyl}-S,S-dimethylsulfoximide] | 0.027 µM | 0.074 µM | 0.13 µM | 0.8 µM | 0.6 µM | 0.5 µM | 0.4 µM | > 10 µM
8 | C#CCNc1nc(Nc2ccc(N=S(C)(C)=O)cc2)ncc1C(F)(F)F [Example 10, S,S-Dimethyl-N-(4-{[4-(prop-2-yn-1-ylamino)-5-(trifluoromethyl)pyrimidin-2-yl]amino}phenyl)sulfoximide] | 0.22 µM | 0.16 µM | 0.4 µM | – | – | – | – | –
9 | C[C@@H](O)[C@@H](C)Oc1nc(Nc2ccc(N=S(C)(C)=O)cc2)ncc1Br [Example 3, N-{4-[(5-Bromo-4-{[(1R,2R)-2-hydroxy-1-methylpropyl]oxy}-pyrimidin-2-yl)amino]phenyl}S,S-dimethylsulfoximide] | 0.012 µM | 0.044 µM | 0.028 µM | 0.5 µM | 1 µM | 0.7 µM | 0.3 µM | > 10 µM
10 | CS(C)(=O)=Nc1ccc(Nc2ncc(Br)c(N[C@H]3CCCC[C@@H]3O)n2)cc1 [Example 12, N-{4-[(5-Bromo-4-{[(1S,2S)-2-hydroxycyclohexyl]amino}pyrimidin-2-yl)amino]phenyl}S,S-dimethylsulfoximide] | 0.46 µM | 0.28 µM | – | – | – | – | – | –
11 | Cc1cccc(Nc2nc(Nc3ccc(N=S(C)(C)=O)cc3)ncc2Br)n1 [Example 5, N-[4-({5-Bromo-4-[(6-methyl-2-pyridyl)amino]pyrimidin-2-yl}amino)phenyl]-S,S-dimethylsulfoximide] | 0.34 µM | 0.18 µM | 0.49 µM | – | – | – | 0.7 µM | –
12 | CC(C)[C@H](CO)Nc1nc(Nc2ccc(N=S(C)(C)=O)cc2)ncc1I [Example 4, N-{4-[(4-{[(R)-1-(Hydroxymethyl)-2-methylpropyl]amino}-5-iodopyrimidin-2-yl)amino]phenyl}-S,S-dimethylsulfoximide] | 0.2 µM | 0.088 µM | – | – | – | – | 2.2 µM | –
